# In patent US11491150B2, “Organic compounds” (INTRA-CELLULAR THERAPIES, INC., priority 2017, dated 2022):
# Like-named read-outs stand apart in the source and are kept apart here.
# Tests used:
# neuronal α4β2 nAChR = neuronal α4β2 nAChR (Homo sapiens, UniProt P17787+P43681); experiment: Binding at 10 μM to neuronal α4β2 nAChR (selectivity test)
# Procedure: (§1) The selectivity of these compounds is measured on the neuronal α4β2 and the muscle-type nAChRs using methods known in the art.
# [1] = Pharmacokinetic study, brain penetrability after oral administration; assay type: in vivo; details: mouse, male C57B1/6 mice, oral 10 mg/kg, t=2 h
# Procedure: The pharmacokinetic (PK) study of compounds are performed in male C57B1/6 mice (n=3 per time point) after an oral administration at 10 mg/kg to evaluate the brain penetrability. The concentrations of representative Compound 16 in brain and plasma are 0.15 μM and 0.2 μM at time t=2 h, respectively. The tmax of Compound Q is probably longer than 2 h.
# α7 nAChR = α7 nAChR (Homo sapiens, UniProt P36544); experiment: Binding at 10 μM to α7 nAChR (selectivity test)
# muscle-type nAChRs = experiment: Binding at 10 μM to muscle-type nAChRs (selectivity test)
# Procedure: as §1
# mouse model of diabetes = experiment: Nephropathy in streptozotocin mouse model of diabetes (eNOS-/- mice), α7-nAchR blocker; assay type: in vivo; details: blocker 2 mg/kg i.p. 5 days a week, 10 weeks; for Systolic BP: tail-cuff
# Procedure: Normal mice express the α7-nAChR in both the proximal and distal tubule of the kidneys. Tests were conducted to determine the role of the α7-nAchR on the severity of nephropathy in a mouse model of diabetes. Diabetes mellitus (DM) was induced in all mice with streptozotocin (STZ). This test closely mimics diabetic […] in humans. Mice were either given nicotine (DN) in doses of […] in drinking water or tap water with no nicotine for a period of 10 weeks (DT). Targeted disruption of the endothelial nitric oxide synthase gene led to eNOS^-/- knockout in a group of mice to increase susceptibility of STZ in the mice. One group of eNOS^-/- knockout mice was also subjected to targeted disruption of the α7-nAchR gene, which led to eNOS^-/-/α7-nAchR^-/- double knockout mice (DN^-/- and DT^-/-). A separate group of eNOS^-/- mice also received a α7-nAchR blocker (DN+B and DT+B). The blocker used was Compound 17 at a dosage of 2 mg/kg given intraperitoneally for 5 days a week for a period of 10 weeks. Blood pressure was measured by tail-cuff method and urine was collected every 2 weeks for albuminuria.
# All mice became diabetic after being administered STZ, and all mice were also hypertensive.
# [2] = DN + B: diabetic eNOS-/- mice on nicotine
# [3] = DT + B: diabetic eNOS-/- mice on tap water
# neuronal α4β2 nAChR, sequence (P43681 29-627 limits assumed): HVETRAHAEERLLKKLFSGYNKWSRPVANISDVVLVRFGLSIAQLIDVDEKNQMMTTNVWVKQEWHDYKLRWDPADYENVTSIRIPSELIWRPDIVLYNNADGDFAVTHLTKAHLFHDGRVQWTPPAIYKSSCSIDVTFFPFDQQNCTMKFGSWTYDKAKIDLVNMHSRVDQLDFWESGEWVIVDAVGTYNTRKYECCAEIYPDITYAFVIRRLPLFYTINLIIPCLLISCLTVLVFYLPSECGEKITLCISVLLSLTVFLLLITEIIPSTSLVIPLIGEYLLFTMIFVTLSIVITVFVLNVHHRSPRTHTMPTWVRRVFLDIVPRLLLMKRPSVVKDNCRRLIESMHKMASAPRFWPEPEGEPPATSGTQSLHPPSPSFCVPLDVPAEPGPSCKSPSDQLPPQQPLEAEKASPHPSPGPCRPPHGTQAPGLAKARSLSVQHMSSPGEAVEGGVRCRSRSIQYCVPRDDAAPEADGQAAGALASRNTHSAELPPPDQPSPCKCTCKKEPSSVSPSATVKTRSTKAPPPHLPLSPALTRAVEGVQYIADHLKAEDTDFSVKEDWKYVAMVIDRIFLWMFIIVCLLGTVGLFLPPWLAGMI
# neuronal α4β2 nAChR, sequence (P17787 26-502): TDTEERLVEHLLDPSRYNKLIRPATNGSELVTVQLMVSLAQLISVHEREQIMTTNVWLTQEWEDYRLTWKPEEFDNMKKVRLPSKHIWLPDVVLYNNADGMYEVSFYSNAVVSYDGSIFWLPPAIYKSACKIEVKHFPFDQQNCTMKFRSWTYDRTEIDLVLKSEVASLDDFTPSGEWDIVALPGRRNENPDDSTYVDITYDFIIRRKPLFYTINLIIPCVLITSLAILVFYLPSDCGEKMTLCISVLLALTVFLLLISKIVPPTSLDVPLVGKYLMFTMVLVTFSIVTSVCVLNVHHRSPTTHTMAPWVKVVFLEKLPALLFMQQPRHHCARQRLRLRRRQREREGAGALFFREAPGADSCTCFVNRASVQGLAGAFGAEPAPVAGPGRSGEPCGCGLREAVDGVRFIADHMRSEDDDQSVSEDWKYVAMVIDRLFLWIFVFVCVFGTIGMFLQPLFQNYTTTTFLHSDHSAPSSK
# α7 nAChR, sequence (P36544 23-502): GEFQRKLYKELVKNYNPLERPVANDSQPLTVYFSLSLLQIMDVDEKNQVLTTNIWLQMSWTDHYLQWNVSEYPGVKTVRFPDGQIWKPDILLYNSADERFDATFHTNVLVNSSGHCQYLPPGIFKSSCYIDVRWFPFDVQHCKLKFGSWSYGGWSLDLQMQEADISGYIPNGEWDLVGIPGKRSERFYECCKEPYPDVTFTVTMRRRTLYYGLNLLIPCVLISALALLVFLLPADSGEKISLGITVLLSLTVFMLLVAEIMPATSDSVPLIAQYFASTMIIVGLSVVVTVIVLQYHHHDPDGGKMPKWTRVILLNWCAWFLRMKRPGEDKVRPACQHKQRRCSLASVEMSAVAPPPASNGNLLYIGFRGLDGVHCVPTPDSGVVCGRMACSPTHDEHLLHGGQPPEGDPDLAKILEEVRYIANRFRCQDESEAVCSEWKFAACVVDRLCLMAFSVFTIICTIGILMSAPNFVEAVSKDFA
SMILES,binding to the neuronal α4β2 nAChR (neuronal α4β2 nAChR),"concentration at 2 h ([1]; brain, read-out: concentration in brain)","concentration at 2 h ([1]; plasma, read-out: concentration in plasma)",binding to the α7 receptor (α7 nAChR),binding to muscle-type nAChRs (muscle-type nAChRs),Albuminuria (mouse model of diabetes; [2]),Blood Glucose (mouse model of diabetes; [2]),Systolic BP (mouse model of diabetes; [2]),Albuminuria (mouse model of diabetes; [3]),Blood Glucose (mouse model of diabetes; [3]),Systolic BP (mouse model of diabetes; [3])
CN(CC1CC[N+](C)(Cc2ccccc2)CC1)C(=O)c1cn(Cc2ccccc2Cl)nn1 (centres unmarked) [Compound 16],no detectable binding,150 nM,200 nM,92%,no detectable binding,–,–,–,–,–,–
NS(=O)(=O)c1ccc(Cn2ncc(C(=O)NCC3CCN(Cc4ccccc4)CC3)n2)cc1 [Compound 17],–,–,–,–,–,35 ± 6 ng/ml/24 hr,441 ± 43 mg/dL,142 ± 13 mmHg,50 ± 13 ng/ml/24 hr,354 ± 51 mg/dL,150 ± 11 mmHg
